How the values were obtained:
[1] = system: Lewis lung carcinoma (LLC) cells; assay: Lewis lung carcinoma in vitro culture viability, Cell Titer Glo Assay; format: cell-based, mouse; conditions: for IC50: Mus musculus, Lewis lung carcinoma
Method: Lewis lung carcinoma (LLC) cells were cultured in vitro the presence of a multiple concentrations of the RARγ agonists GA1E, GA2E, and GA3Ep and viability assessed by the Cell Titer Glo Assay®.

[2] = system: EMT6 cells; assay: EMT6 in vitro culture viability, Cell Titer Glo Assay; format: cell-based, mouse; conditions: 5 days; for IC50: Mus musculus, 120 h
Method: EMT6 cells were cultured in vitro for 5 days the presence of a multiple concentrations of the RARγ agonists GA1E, GA2E, and GA3Ep and viability assessed by the Cell Titer Glo Assay® (Promega).

[3] = system: PBMC; assay: CMV recall antigen-stimulated PBMC: IFNγ production and CFSE proliferation; format: cell-based; conditions: four days, vs vehicle control; for IFNγ production: 0.1 to 1000 nM; for Proliferation of CD8+ cells (CFSE dilution): increase small
Method: Peripheral blood mononuclear cells (PBMC) from a cytomegalovirus (CMV)-positive donor were labeled with carboxyfluorescein succinimidyl ester (CFSE) and stimulated with CMV recall antigens at […]. The PBMC were then treated with one of three difference RARγ selective agonists or vehicle (DMSO) control and incubated at 37° C., 5% CO2 for four days. Culture supernatant was harvested and assayed for IFNγ production and the PBMC evaluated for proliferation by flow cytometry for CFSE dilution.
CFSE is a fluorescent reactive cell membrane permeable dye. After it is taken up, CFSE covalently modifies proteins and is retained in cells for long periods of time. The CFSE-modified proteins are generally evenly divided between daughter cells at each division so that fluorescent intensity of the cells falls by have at each division. Thus diminution of the dye's fluorescent signal can be used as a measure of proliferation.

[4] = molecular target: T1, RARγ (Homo sapiens, UniProt P13631); assay: RARγ transactivation assay (luciferase reporter); format: cell-based
T1 construct: expression plasmids encoding the full-length receptors RARα and RARγ; expressed in transfected cells
T1 sequence (P13631 1-454): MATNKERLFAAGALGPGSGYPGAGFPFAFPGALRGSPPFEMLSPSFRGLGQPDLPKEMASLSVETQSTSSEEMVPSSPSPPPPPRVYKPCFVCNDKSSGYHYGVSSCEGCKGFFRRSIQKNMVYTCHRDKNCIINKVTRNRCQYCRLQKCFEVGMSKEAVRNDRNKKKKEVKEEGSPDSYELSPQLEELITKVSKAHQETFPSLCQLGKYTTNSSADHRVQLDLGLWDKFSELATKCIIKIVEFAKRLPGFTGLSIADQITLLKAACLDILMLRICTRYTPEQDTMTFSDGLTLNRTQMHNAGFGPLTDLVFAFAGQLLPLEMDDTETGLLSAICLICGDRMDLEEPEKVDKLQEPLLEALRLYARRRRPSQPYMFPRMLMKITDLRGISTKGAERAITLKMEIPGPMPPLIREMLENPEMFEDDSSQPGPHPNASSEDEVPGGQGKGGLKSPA
Method: Transactivation assays were conducted to test the specificity of binding activity of GA1E and GA2E for RARα and RARγ. Retinoic acid receptor transactivation activity and binding efficiencies were determined essentially as described in U.S. Pat. Nos. 5,298,429 and 5,071,773, incorporated by reference herein for all they teach regarding transactivation assays. Transactivation assays employed expression plasmids encoding the full-length receptors RARα and RARγ. Reporter plasmids containing the herpes virus thymidine kinase promoter and the appropriate retinoic acid receptor response element (RAREs) were positioned upstream of an open coding region encoding firefly luciferase.
The ability of GA1E and GA2E to activate RARα and RARγ in a transactivation assay was tested over a concentration range of 0.5 to 625 nM (GA2E) or 0.05 to 3320 nM (GA1E). GA1E induced less than 10% transactivation for RARα across the whole concentration range, but over 50% transactivation for RARγ at concentrations ≥25 nM and over 70% at concentrations 125 nM (FIG. 3A). GA2E induced more than 85% transactivation at all tested concentrations and less than 10% transactivation of RARα at concentrations of ≤25 nM (FIG. 3B).

[5] = system: TIL in EMT6 tumors; assay: Flow cytometry of excised EMT6 tumors (Example 4); format: in vivo, mouse
Text: At the end of the study of Example 3, the tumors were excised, the cells disaggregated and dispersed without use of proteases, stained with various agents, and subjected to flow cytometry. FIG. 5A-B present the results of the flow cytometry both as a percentage of cells and as the number of cells per tumor. […] Of these live cells, a substantial proportion were leukocytes (FIG. 5A, “CD45” panels). […] The majority of the T cells were CD4+(FIG. 5A, “CD4” panels), expected to be predominantly helper cells. Of the CD4^+ cells, only small proportions were T memory cells (expected to be predominantly TH1 memory cells) based on intracellular staining for IFNγ (FIG. 5B, “TH IFGγ” panels), TH17 cells based in intracellular staining for IL-17 (FIG. 5B, “TH IL17” panels), or Treg cell based on staining for CD25 and FoxP3 (FIG. 5B, “Treg” panels). About 25-30% of the T cells were CD8^+ (FIG. 5B, “CD8 T” panels), expected to be predominantly cytotoxic cells.

[6] = system: EMT6 cells; assay: EMT6 syngeneic mouse model of triple negative breast cancer (Example 3); format: in vivo; conditions: 21 daily oral doses 10 mg/kg; at the end of the study
Method: The RARγ agonists tazarotenic acid and GA2E were evaluated in the EMT6 syngeneic mouse model of breast cancer. 5×10^5 EMT6 cells were injected into the mammary fat pad of immunocompetent female Balb/c mice. When the tumors reached an average volume of 50-150 mm^3, mice were matched by tumor size into control or treatment groups (n=10-11).
The mice were treated with 21 daily oral doses 10 mg/kg of 1 mg/ml tazarotenic acid or GA2E, or vehicle control, starting on Day 0. Tumor volume was measured, and the mice weighed, on days 0, 1, 3, 6, 8, 10, 13, 15, 17, 20, and 21.

SMILES	effect on viability as concentrations exceeded 10 μM [1]	effect on viability at concentrations below 1 μM [1]	IC50 [1]	effect on viability as concentrations exceeded 10 μM [2]	effect on viability at concentrations below 1 μM [2]	IC50 [2]	IFNγ production [3]	Proliferation of CD8+ cells (CFSE dilution) [3]	transactivation for RARγ ([4]; at concentrations 125 nM)	transactivation for RARγ ([4]; at concentrations ≥25 nM)	T cells (anti-CD3) as mean percentage of the leukocytes in the tumor ([5]; 10 mg/kg oral daily, end of study)	proportion of CD8+ T cells that were memory cells (intracellular IFNγ) ([5]; vs vehicle control, did not achieve statistical significance)	tumor growth inhibition [6]
CC1(C)CCC(C)(C)c2cc(C(/C=C/c3ccc(C(=O)O)cc3)=N/O)ccc21 [GA3Ep]	rapidly became toxic	no effect	45 µM	rapidly became toxic	no effect	101 µM	increased IFNγ production substantially	increased					
CCc1oc2ccc(C(/C=C/c3ccc(C(=O)O)cc3F)=N/O)cc2c1C(C)(C)C [GA1E, 4-((1E,3E)-3-(3-(tert-butyl)-2-ethyl-benzofuran-5-yl)-3-(hydroxyimino)prop-1-en-1-yl)-3-fluorobenzoic acid]	rapidly became toxic	no effect	96 µM	rapidly became toxic	no effect	52 µM			over 70%	over 50%			
CC1(C)CCSc2ccc(C#Cc3ccc(C(=O)O)cn3)cc21 [tazarotenic acid, reference compound]							increased IFNγ production substantially	increased			~10%	numerically increased	44%
